Measured values: patent US4320136A, “8-Aza-16,16-difluoroprostanoids” (E. I. Du Pont de Nemours and Company, priority 1980, dated 1982)

Experiments:
[1] = system: necrosis and inflammation of the stomach caused by ethanol; assay: protection of rat stomach from ethanol-caused necrosis and inflammation (cytoprotection, oral); assay type: in vivo, rat (fasted, male); details: for inhibition in vivo at 2 mg/kg / ED50: Rattus norvegicus; for inhibition in vivo at 2 mg/kg: po, 1 h, read-out: Percent Protection 2 mg/kg, at 1 hr; for inhibition in vivo at 2 mg/kg / ED50 / Percent Protection 2 mg/kg, at 1 hr: oral; for inhibition in vivo at 2 mg/kg / Percent Protection 2 mg/kg, at 1 hr: 1 hr between compound and ethanol; for ED50: 50% protection, at peak time; for Peak Time: interval between compound and ethanol at which greatest protection is observed; for cytoprotective effect (in words): rat, in vivo
Protocol: Some differences in the cytoprotective properties of these optical isomers are indicated by data in Table I. Using a method similar to that of Robert [U.S. Pat. No. 4,097,603 (1978)], fasted, male rats were treated with 8-azaprostanoids orally and various times later they were treated orally with 1.0 ml of absolute ethanol. The rats were sacrificed after ethanol administration and the stomachs were removed, inspected, and rated. The ED50 values in Table I represent the doses of 8-aza-16,16-difluoroprostanoids that gave 50% protection from the necrosis and inflammation of the stomach caused by ethanol. Values for the natural prostaglandin E1 (PGE1) and for two known nonfluorinated 8-azaprostanoids are given for comparison.
*"1 hr" refers to the one hour interval between administration of compoun
and subsequent ethanol administration.
**"Peak Time" refers to that interval between administration of compound
and administration of ethanol at which greatest protection is observed.

[2] = system: PGE1; assay: PGE1 antagonist test on isolated rat stomach strips
Text: These PGE1 antagonist tests were run on isolated rat stomach strips.

[3] = system: histamine-induced bronchoconstriction; assay: aerosol histamine challenge test (histamine-induced bronchoconstriction); assay type: in vivo, guinea pig
Protocol: As has been mentioned, compounds of this invention also show activity as potential drugs for controlling bronchial asthma. Using an aerosol histamine challenge test in guinea pigs [a modification of the method of M. E. Rosenthale et al, Experientia, 26, 119 (1970)], the ability of 8-aza-16,16-difluoroprostanoids administered by i.p. injection to protect against histamine-induced bronchoconstriction was measured. Using injections of 0.5 mg/kg and evaluating the guinea pigs 60 minutes after the injections, compound 6 gave 40% protection, compound 6l (15 RS) gave 39% protection, and compound 6d(15 RS) gave 14% protection. An oral dose of compound 8 at 5 mg/kg gave 80% protection at 2 hours.

[4] = i.p. 0.5 mg/kg, 60 minutes after injection, 0.5 mg/kg

SMILES | inhibition in vivo at 2 mg/kg [1] [%] | ED50 [1] [mg/kg] | Peak Time [1] [min] | other results
CCCCCC(O)C=CC1CCC(=O)N1CCCCCCC(=O)OC (stereo not shown) [methyl 7-[2-oxo-5-(3-hydroxy-1-oct-1-enyl)-1-pyrrolidinyl]heptanoate, reference compound] | 60 | 1.8 | 60 | –
CCCCCCC(F)(F)[C@@H](O)/C=C/[C@H]1CCC(=O)N1CCCCCCC(=O)OC(C)(C)C (single isomer, unassigned) [6l (15S), tert-Butyl 7-[2-Oxo-5(R or S)-5-(4,4-difluoro-3(R or S)-3hydroxy-1-n-dec-1(E)-enyl)-1-pyrrolidinyl]heptanoate] | 9 | – | – | –
CCCCC(F)(F)C(O)/C=C/C1CCC(=O)N1CCCCCCC(=O)OC (stereo not shown) [Compound 15] | 88 | 0.025 | 15 | –
CCCCCCC(F)(F)[C@H](O)/C=C/[C@H]1CCC(=O)N1CCCCCCC(=O)O [7l (15R), 7-[2-oxo-5(R)-5-(4,4-difluoro-3(R)-3-hydroxy-1n-dec-1(E)-enyl)-1-pyrrolidinyl]heptanoic acid] | – | 0.0007 | 15 | –
O=C(O)CCCCCCN1C(=O)CCC1/C=C/C(O)C(F)(F)c1ccccc1 (racemic) [Compound 22] | 82 | – | – | –
CCCCCCC(F)(F)C(O)/C=C/C1CCC(=O)N1CCCCCCC(=O)OC(C)(C)C (racemic) [Compound 6, racemic tert-Butyl 7-[2-Oxo-5(RS)-5-(4,4-difluoro-3(RS)-3-hydroxy-1n-dec-1(E)-enyl)-1-pyrrolidinyl]-heptanoate] | 32 | – | – | cytoprotective effect (in words) [1]: some cytoprotective activity; PGE1 antagonism (in words) [2]: weaker PGE1 antagonist; protection against histamine-induced bronchoconstriction ([3]; i.p. 0.5 mg/kg, 60 minutes after injection): 40%
CC(C)(C)OC(=O)CCCCCCN1C(=O)CCC1/C=C/C(O)C(F)(F)c1ccccc1 (racemic) [Compound 21, racemic tert-Butyl 7-[2-Oxo-5(RS)-5-(4,4-difluoro-3(RS)-hydroxy-4-phenyl-1n-but-1(E)-enyl)-1-pyrrolidinyl]heptanoate] | 68 | – | – | –
CCCCC[C@H](O)/C=C/[C@H]1[C@H](O)CC(=O)[C@@H]1CCCCCCC(=O)O [PGE1, prostaglandin E1, reference compound] | – | 0.011 | 5 | –
CCCCCCC(F)(F)[C@H](O)/C=C/[C@H]1CCC(=O)N1CCCCCCC(=O)OC(C)(C)C (single isomer, unassigned) [6l (15R), tert-Butyl 7-[2-Oxo-5(R or S)-5-(4,4-difluoro-3(R or S)-3hydroxy-1-n-dec-1(E)-enyl)-1-pyrrolidinyl]heptanoate] | 59 | – | – | –
CCCCCC(O)C=CC1CCC(=O)N1CCCCCCC(=O)O (stereo not shown) [7-[2-oxo-5-(3-hydroxy-1-oct-1-enyl)-1-pyrrolidinyl]heptanoic acids, reference compound] | 40 | 3 | 60 | –
CCCCCCC(F)(F)C(O)/C=C/C1CCC(=O)N1CCCCCCC(=O)O (racemic) [Compound 7, racemic 7-[2-Oxo-5(RS)-(4,4-difluoro-3(RS)-hydroxy-1-n-dec-1(E)-enyl)-1-pyrrolidinyl]heptanoic Acid] | 91 | 0.0035 | 15 | –
CCCCC(F)(F)C(O)/C=C/C1CCC(=O)N1CCCCCCC(=O)O (racemic) [Compound 14, racemic 7-[2-Oxo-5(RS)-5-(4,4-difluoro-3(RS)-3-hydroxyl-1-n-oct-1(E)-enyl)-1-pyrrolidinyl]heptanoic Acid] | – | 0.22 | 60 | –
CCCCC(F)(F)C(O)/C=C/C1CCC(=O)N1CCCCCCC(=O)OC(C)(C)C (racemic) [Compound 13, racemic t-Butyl 7-[2-Oxo-5(RS)-5-(4,4-difluoro-3(RS)-3-hydroxy-1-n-oct-1(E)-enyl)-1-pyrrolidinyl]heptanoate] | 66 | 0.8 | 15 | –
CCCCCCC(F)(F)C(O)C=CC1CCC(=O)N1CCCCCCC(=O)OC(C)(C)C (single isomer, unassigned) [6l (15RS), tert-Butyl 7-[2-Oxo-5(R or S)5(4,4-difluoro-3-hydroxy-1n-dec-1(E)-enyl)-1-pyrrolidinyl]heptanoate] | – | – | – | Percent Protection 2 mg/kg, at 1 hr [1]: 59%; protection against histamine-induced bronchoconstriction [3, 4]: 39%
CCCCCCC(F)(F)C(O)/C=C/C1CCC(=O)N1CCCCCCC(=O)OC (racemic) [Compound 8, racemic Methyl 7-[2-Oxo-5(RS)-5-(4,4-difluoro-3(RS)-3-hydroxy-1-n-dec-1-(E)-enyl)-1-pyrrolidinyl]heptanoate] | 91 | 0.005 | 15 | protection against histamine-induced bronchoconstriction ([3]; oral 5 mg/kg, at 2 hours): 80%
CCCCCCC(F)(F)C(O)C=CC1CCC(=O)N1CCCCCCC(=O)OC(C)(C)C (single isomer, unassigned) [6d (15RS), tert-Butyl 7-[2-Oxo-5(R or S)5(4,4-difluoro-3-hydroxy-1n-dec-1(E)-enyl)-1-pyrrolidinyl]heptanoate] | – | – | – | Percent Protection 2 mg/kg, at 1 hr [1]: -5%; cytoprotective effect (in words) [1]: no (or a negative) cytoprotective effect; IC50 against PGE1 [2]: 3 to 5 mg/L; protection against histamine-induced bronchoconstriction [3, 4]: 14%
CCCCCCC(F)(F)[C@@H](O)/C=C/[C@H]1CCC(=O)N1CCCCCCC(=O)O (single isomer, unassigned) [7l (15S), 7-[2-Oxo-5(R or S)-5-(4,4-difluoro-3(R or S)-3-hydroxy-1n-dec-1(E)-enyl)-1-pyrrolidinyl]heptanoic Acid] | – | 0.01 | – | –
